Columns and labels:
[1] = test system: barnyardgrass; test: Test A preemergence; assay type: in vivo, Echinochloa crus-galli; settings: 0 to 100 scale (0 no effect, 100 complete control)
Outline: (§1)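 Plant seeds in loam soil blended with sand, then apply test chemical preemergence as a directed soil spray; in parallel, spray potted seedlings (one- to two-leaf, 2 to 10 cm) postemergence. Both treatments use a non-phytotoxic solvent mixture with surfactant.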

[2] = test system: barnyardgrass; test: Test A postemergence; assay type: in vivo, Echinochloa crus-galli; settings: 0 to 100 scale (0 no effect, 100 complete control), approx. 10 d
Outline: as §1

[3] = test system: wheat; test: Test A postemergence; assay type: in vivo, Triticum aestivum; settings: 0 to 100 scale (0 no effect, 100 complete control), approx. 10 d
Outline: as §1

[4] = test system: corn; test: Test A postemergence; assay type: in vivo, Zea mays; settings: 0 to 100 scale (0 no effect, 100 complete control), approx. 10 d
Outline: as §1

[5] = test system: rice; test: Test B flooded paddy test; assay type: in vivo, Oryza sativa; settings: 250 g ai/ha, applied to paddy water at 2-leaf stage, visual rating after 13 to 15 d, scale 0 (no effect) to 100 (complete control)
Outline: (§2)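 Pots were flooded to 3 cm above the soil at treatment, and compounds were applied directly into the paddy water. That depth was held throughout. After 13 to 15 d in a greenhouse, plants were rated visually against untreated controls.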

[6] = test system: sedge, umbrella; test: Test B flooded paddy test; assay type: in vivo, Cyperus difformis; settings: 250 g ai/ha, applied to paddy water at 2-leaf stage, visual rating after 13 to 15 d, scale 0 (no effect) to 100 (complete control)
Outline: as §2

[7] = test system: barnyardgrass; test: Test B flooded paddy test; assay type: in vivo, Echinochloa crus-galli; settings: 250 g ai/ha, applied to paddy water at 2-leaf stage, visual rating after 13 to 15 d, scale 0 (no effect) to 100 (complete control)
Outline: as §2

[8] = test system: blackgrass; test: Test C postemergence; assay type: in vivo, Alopecurus myosuroides
Outline: (§3)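 Plants are treated postemergence at the 1- to 4-leaf stage (2 to 18 cm), grown in sphagnum peat/vermiculite medium; preemergence treatment is applied to seed planted in loam soil with sand. Both use test chemical in a non-phytotoxic solvent mixture with surfactant.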

[9] = test system: ryegrass, Italian; test: Test C postemergence; assay type: in vivo, Lolium multiflorum
Outline: as §3

[10] = test system: wheat (winter wheat); test: Test C postemergence; assay type: in vivo, Triticum aestivum
Outline: as §3

[11] = test system: foxtail, giant; test: Test C postemergence; assay type: in vivo, Setaria faberii
Outline: as §3

[12] = test system: lambsquarters; test: Test C postemergence; assay type: in vivo, Chenopodium album
Outline: as §3

[13] = test system: morningglory; test: Test C postemergence; assay type: in vivo, Ipomoea coccinea
Outline: as §3

[14] = test system: nutsedge, yellow; test: Test C postemergence; assay type: in vivo, Cyperus esculentus
Outline: as §3

[15] = test system: pigweed; test: Test C postemergence; assay type: in vivo, Amaranthus retroflexus
Outline: as §3

[16] = test system: oilseed rape; test: Test C postemergence; assay type: in vivo, Brassica napus; settings: Oilseed Rape
Outline: as §3

[17] = test system: waterhemp; test: Test C postemergence; assay type: in vivo, Amaranthus rudis
Outline: as §3

[18] = test system: chickweed; test: Test C postemergence; assay type: in vivo, Stellaria media
Outline: as §3

[19] = test system: oat, wild; test: Test C postemergence; assay type: in vivo, Avena fatua
Outline: as §3

[20] = test system: kochia; test: Test C postemergence; assay type: in vivo, Kochia scoparia
Outline: as §3

CCOc1nc(-c2ccc(Cl)cc2)nn1Cc1ccnc(C(F)(F)F)c1 [Compound 26]
90: Plant response rating, Barnyardgrass ([1]; 125 g ai/ha) | Plant response rating, Sedge, Umbrella, Flood [6] | Plant response rating (scale of 0 to 100 where 0 is no effect and 100 is complete control) ([13]; 16 g ai/ha) | Plant response rating (scale of 0 to 100 where 0 is no effect and 100 is complete control) ([13]; 31 g ai/ha) | Plant response rating (scale of 0 to 100 where 0 is no effect and 100 is complete control) ([16]; 16 g ai/ha) | Plant response rating (scale of 0 to 100 where 0 is no effect and 100 is complete control) ([16]; 62 g ai/ha) | Plant response rating (scale of 0 to 100 where 0 is no effect and 100 is complete control) ([18]; 16 g ai/ha) | Plant response rating (scale of 0 to 100 where 0 is no effect and 100 is complete control) ([20]; 31 g ai/ha) | Plant response rating (scale of 0 to 100 where 0 is no effect and 100 is complete control) ([20]; 62 g ai/ha) | Plant response rating (scale of 0 to 100 where 0 is no effect and 100 is complete control) ([20]; 125 g ai/ha)
60: Plant response rating, Barnyardgrass ([1]; 31 g ai/ha)
95: Plant response rating (scale of 0 to 100 where 0 is no effect and 100 is complete control) ([15]; 16 g ai/ha) | Plant response rating (scale of 0 to 100 where 0 is no effect and 100 is complete control) ([15]; 31 g ai/ha) | Plant response rating (scale of 0 to 100 where 0 is no effect and 100 is complete control) ([16]; 125 g ai/ha) | Plant response rating (scale of 0 to 100 where 0 is no effect and 100 is complete control) ([17]; 16 g ai/ha) | Plant response rating (scale of 0 to 100 where 0 is no effect and 100 is complete control) ([18]; 31 g ai/ha) | Plant response rating (scale of 0 to 100 where 0 is no effect and 100 is complete control) ([18]; 62 g ai/ha) | Plant response rating (scale of 0 to 100 where 0 is no effect and 100 is complete control) ([18]; 125 g ai/ha)
15: Plant response rating (scale of 0 to 100 where 0 is no effect and 100 is complete control) ([8]; 16 g ai/ha) | Plant response rating (scale of 0 to 100 where 0 is no effect and 100 is complete control) ([14]; 16 g ai/ha)
40: Plant response rating, Barnyardgrass ([2]; 31 g ai/ha) | Plant response rating, Corn ([4]; 125 g ai/ha) | Plant response rating (scale of 0 to 100 where 0 is no effect and 100 is complete control) ([8]; 62 g ai/ha) | Plant response rating (scale of 0 to 100 where 0 is no effect and 100 is complete control) ([8]; 125 g ai/ha) | Plant response rating (scale of 0 to 100 where 0 is no effect and 100 is complete control) ([9]; 125 g ai/ha) | Plant response rating (scale of 0 to 100 where 0 is no effect and 100 is complete control) ([11]; 125 g ai/ha) | Plant response rating (scale of 0 to 100 where 0 is no effect and 100 is complete control) ([19]; 62 g ai/ha)
70: Plant response rating, Barnyardgrass ([2]; 125 g ai/ha)
5: Plant response rating (scale of 0 to 100 where 0 is no effect and 100 is complete control) ([10]; 16 g ai/ha)
100: Plant response rating (scale of 0 to 100 where 0 is no effect and 100 is complete control) ([12]; 16 g ai/ha) | Plant response rating (scale of 0 to 100 where 0 is no effect and 100 is complete control) ([12]; 31 g ai/ha) | Plant response rating (scale of 0 to 100 where 0 is no effect and 100 is complete control) ([12]; 62 g ai/ha) | Plant response rating (scale of 0 to 100 where 0 is no effect and 100 is complete control) ([12]; 125 g ai/ha)
30: Plant response rating, Corn ([4]; 31 g ai/ha) | Plant response rating (scale of 0 to 100 where 0 is no effect and 100 is complete control) ([14]; 62 g ai/ha)
75: Plant response rating (scale of 0 to 100 where 0 is no effect and 100 is complete control) ([13]; 62 g ai/ha)
10: Plant response rating (scale of 0 to 100 where 0 is no effect and 100 is complete control) ([10]; 31 g ai/ha) | Plant response rating (scale of 0 to 100 where 0 is no effect and 100 is complete control) ([10]; 62 g ai/ha) | Plant response rating (scale of 0 to 100 where 0 is no effect and 100 is complete control) ([10]; 125 g ai/ha) | Plant response rating (scale of 0 to 100 where 0 is no effect and 100 is complete control) ([11]; 16 g ai/ha)
98: Plant response rating (scale of 0 to 100 where 0 is no effect and 100 is complete control) ([15]; 62 g ai/ha) | Plant response rating (scale of 0 to 100 where 0 is no effect and 100 is complete control) ([15]; 125 g ai/ha) | Plant response rating (scale of 0 to 100 where 0 is no effect and 100 is complete control) ([16]; 31 g ai/ha) | Plant response rating (scale of 0 to 100 where 0 is no effect and 100 is complete control) ([17]; 31 g ai/ha) | Plant response rating (scale of 0 to 100 where 0 is no effect and 100 is complete control) ([17]; 62 g ai/ha) | Plant response rating (scale of 0 to 100 where 0 is no effect and 100 is complete control) ([17]; 125 g ai/ha)
20: Plant response rating, Wheat ([3]; 31 g ai/ha) | Plant response rating, Wheat ([3]; 125 g ai/ha) | Plant response rating (scale of 0 to 100 where 0 is no effect and 100 is complete control) ([9]; 16 g ai/ha) | Plant response rating (scale of 0 to 100 where 0 is no effect and 100 is complete control) ([11]; 31 g ai/ha) | Plant response rating (scale of 0 to 100 where 0 is no effect and 100 is complete control) ([14]; 125 g ai/ha)
85: Plant response rating (scale of 0 to 100 where 0 is no effect and 100 is complete control) ([13]; 125 g ai/ha) | Plant response rating (scale of 0 to 100 where 0 is no effect and 100 is complete control) ([20]; 16 g ai/ha)
50: Plant response rating, Barnyardgrass, Flood [7]
35: Plant response rating (scale of 0 to 100 where 0 is no effect and 100 is complete control) ([8]; 31 g ai/ha) | Plant response rating (scale of 0 to 100 where 0 is no effect and 100 is complete control) ([9]; 31 g ai/ha) | Plant response rating (scale of 0 to 100 where 0 is no effect and 100 is complete control) ([9]; 62 g ai/ha) | Plant response rating (scale of 0 to 100 where 0 is no effect and 100 is complete control) ([19]; 16 g ai/ha) | Plant response rating (scale of 0 to 100 where 0 is no effect and 100 is complete control) ([19]; 31 g ai/ha)
45: Plant response rating, Rice, Flood [5] | Plant response rating (scale of 0 to 100 where 0 is no effect and 100 is complete control) ([19]; 125 g ai/ha)
25: Plant response rating (scale of 0 to 100 where 0 is no effect and 100 is complete control) ([11]; 62 g ai/ha) | Plant response rating (scale of 0 to 100 where 0 is no effect and 100 is complete control) ([14]; 31 g ai/ha)
